Biological target: T1, KRas-G12D (Homo sapiens, UniProt P01116, G12D)
T1 construct: insert the HiBiT tag onto the N-terminus of one or more of the endogenous KRas alleles; host or cells: AsPC-1 HiBiT-KRasG12D knock-in clone (one tagged allele, two untagged KRasG12D alleles)
Test: HiBiT Degradation Assay (G12D), AsPC-1 HiBiT-KRasG12D cells, 24 hr
Assay type: cell-based
Settings: for Dmax: ASPC1, AsPC-1 cells, maximum degradation observed; for DC50: AsPC-1 cells
How it was run: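 AsPC-1 cells with CRISPR N-terminal HiBiT knock-in on one endogenous KRasG12D allele, treated 24 hr at 37° C with compound titrations in 0.5% DMSO. Lytic HiBiT luminescence normalized to DMSO, fitted to a 4-parameter model for DC50 and Dmax. Parallel alamar blue (4 hr) checked viability.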

T1 sequence (P01116 1-188 isoform P01116-2 G12D): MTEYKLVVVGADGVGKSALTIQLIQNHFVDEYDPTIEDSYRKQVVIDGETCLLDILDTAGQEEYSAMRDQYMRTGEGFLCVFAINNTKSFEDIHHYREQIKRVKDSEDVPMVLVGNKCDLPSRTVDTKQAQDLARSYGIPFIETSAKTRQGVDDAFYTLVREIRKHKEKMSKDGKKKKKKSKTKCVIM

Compound	Dmax	DC50
C#Cc1c(F)ccc2cc(O)cc(-c3ncc4c(N5CC6CCC(C5)N6)nc(OCC5(CN6CCC(CN7CCN(c8ccc9c(c8)n(C)c(=O)n9C8CCC(=O)NC8=O)CC7)CC6)CC5)nc4c3F)c12 (stereo not shown) [Compound 189, 3-{5-[4-({1-[(1-{[(4-{3,8-diazabicyclo[3.2.1]octan-3-yl}-7-(8-ethynyl-7-fluoro-3-hydroxynaphthalen-1-yl)-8-fluoropyrido[4,3-d]pyrimidin-2-yl)oxy]methyl}cyclopropyl)methyl]piperidin-4-yl}methyl)piperazin-1-yl]-3-methyl-2-oxo-2,3-dihydro-1H-1,3-benzodiazol-1-yl}piperidine-2,6-dione]	> 70%	< 5.1 µM
C#Cc1c(F)ccc2cc(O)cc(-c3ncc4c(N5CC6CCC(C5)N6)nc(OCC5(CN6CCC(CC7CCN(c8ccc9c(c8Cl)CN(C8CCC(=O)NC8=O)C9=O)CC7)CC6)CC5)nc4c3F)c12 (stereo not shown) [Compound 190, 3-{4-chloro-5-[4-({1-[(1-{[(4-{3,8-diazabicyclo[3.2.1]octan-3-yl}-7-(8-ethynyl-7-fluoro-3-hydroxynaphthalen-1-yl)-8-fluoropyrido[4,3-d]pyrimidin-2-yl)oxy]methyl}cyclopropyl)methyl]piperidin-4-yl}methyl)piperidin-1-yl]-1-oxo-2,3-dihydro-1H-isoindol-2-yl}piperidine-2,6-dione]	> 70%	< 5.1 µM
C#Cc1c(F)ccc2cc(O)cc(-c3ncc4c(N5CC6CCC(C5)N6)nc(OCC5(CN6CCC(CC7CCN(c8ccc9c(c8)n(C(C)C)c(=O)n9C8CCC(=O)NC8=O)CC7)CC6)CC5)nc4c3F)c12 (stereo not shown) [Compound 191, 3-{5-[4-({1-[(1-{[(4-{3,8-diazabicyclo[3.2.1]octan-3-yl}-7-(8-ethynyl-7-fluoro-3-hydroxynaphthalen-1-yl)-8-fluoropyrido[4,3-d]pyrimidin-2-yl)oxy]methyl}cyclopropyl)methyl]piperidin-4-yl}methyl)piperidin-1-yl]-2-oxo-3-(propan-2-yl)-2,3-dihydro-1H-1,3-benzodiazol-1-yl}piperidine-2,6-dione]	> 70%	< 5.1 µM
C#Cc1c(F)ccc2cc(O)cc(-c3ncc4c(N5CC6CCC(C5)N6)nc(OCC5(CN6CCC(CC7CCN(c8ccc9c(c8F)CN(C8CCC(=O)NC8=O)C9=O)CC7)CC6)CC5)nc4c3F)c12 (stereo not shown) [Compound 192, 3-{5-[4-({1-[(1-{[(4-{3,8-diazabicyclo[3.2.1]octan-3-yl}-7-(8-ethynyl-7-fluoro-3-hydroxynaphthalen-1-yl)-8-fluoropyrido[4,3-d]pyrimidin-2-yl)oxy]methyl}cyclopropyl)methyl]piperidin-4-yl}methyl)piperidin-1-yl]-4-fluoro-1-oxo-2,3-dihydro-1H-isoindol-2-yl}piperidine-2,6-dione]	> 70%	< 5.1 µM
C#Cc1c(F)ccc2cc(O)cc(-c3ncc4c(N5CC6CCC(C5)N6)nc(OCC5(CN6CCC7(CCN(CC8CCN(c9ccc%10c(c9)n(C)c(=O)n%10C9CCC(=O)NC9=O)CC8)CC7)CC6)CC5)nc4c3F)c12 (stereo not shown) [Compound 193, 3-[5-[4-[[3-[[1-[[4-(3,8-diazabicyclo[3.2.1]octan-3-yl)-7-(8-ethynyl-7-fluoro-3-hydroxy-1-naphthyl)-8-fluoro-pyrido[4,3-d]pyrimidin-2-yl]oxymethyl]cyclopropyl]methyl]-3,9-diazaspiro[5.5]undecan-9-yl]methyl]-1-piperidyl]-3-methyl-2-oxo-benzimidazol-1-yl]piperidine-2,6-dione]	> 70%	< 5.1 µM
C#Cc1c(F)ccc2cc(O)cc(-c3ncc4c(N5CC6CCC(C5)N6)nc(OC[C@H](C)N5CCC(CC6CCN(CC7CCN(c8ccc9c(c8F)CN(C8CCC(=O)NC8=O)C9=O)CC7)CC6)CC5)nc4c3F)c12 (stereo partly drawn) [Compound 194, 3-[5-[4-[[4-[[1-[(1S)-2-[4-(3,8-diazabicyclo[3.2.1]octan-3-yl)-7-(8-ethynyl-7-fluoro-3-hydroxy-1-naphthyl)-8-fluoro-pyrido[4,3-d]pyrimidin-2-yl]oxy-1-methyl-ethyl]-4-piperidyl]methyl]-1-piperidyl]methyl]-1-piperidyl]-4-fluoro-1-oxo-isoindolin-2-yl]piperidine-2,6-dione]	> 70%	< 5.1 µM
C#Cc1c(F)ccc2cc(O)cc(-c3ncc4c(N5CC6CCC(C5)N6)nc(OC[C@H](C)N5CCC(CC6CCN(CC7CCN(c8ccc9c(c8)n(C(C)C)c(=O)n9C8CCC(=O)NC8=O)CC7)CC6)CC5)nc4c3F)c12 (stereo partly drawn) [Compound 195, 3-[5-[4-[[4-[[1-[(1S)-2-[4-(3,8-diazabicyclo[3.2.1]octan-3-yl)-7-(8-ethynyl-7-fluoro-3-hydroxy-1-naphthyl)-8-fluoro-pyrido[4,3-d]pyrimidin-2-yl]oxy-1-methyl-ethyl]-4-piperidyl]methyl]-1-piperidyl]methyl]-1-piperidyl]-3-isopropyl-2-oxo-benzimidazol-1-yl]piperidine-2,6-dione]	> 70%	< 5.1 µM
C#Cc1c(F)ccc2cc(O)cc(-c3ncc4c(N5CC6CCC(C5)N6)nc(OCC5(CN6CCC(CC7CCN(CC8CCN(c9ccc%10c(c9)n(C)c(=O)n%10C9CCC(=O)NC9=O)CC8)CC7)CC6)CC5)nc4c3F)c12 (stereo not shown) [Compound 196, 3-[5-[4-[[4-[[1-[[1-[[4-(3,8-diazabicyclo[3.2.1]octan-3-yl)-7-(8-ethynyl-7-fluoro-3-hydroxy-1-naphthyl)-8-fluoro-pyrido [4,3-d]pyrimidin-2-yl]oxymethyl]cyclopropyl]methyl]-4-piperidyl]methyl]-1-piperidyl]methyl]-1-piperidyl]-3-methyl-2-oxo-benzimidazol-1-yl]piperidine-2,6-dione]	> 70%	< 5.1 µM
C#Cc1c(F)ccc2cc(O)cc(-c3ncc4c(N5CC6CCC(C5)N6)nc(OCCN5CCC6(CC5)CCN(CC5CCN(c7ccc8c(c7F)n(C)c(=O)n8C7CCC(=O)NC7=O)CC5)CC6)nc4c3F)c12 (stereo not shown) [Compound 197, 3-(5-{4-[(9-{2-[(4-{3,8-diazabicyclo[3.2.1]octan-3-yl}-7-(8-ethynyl-7-fluoro-3-hydroxynaphthalen-1-yl)-8-fluoropyrido[4,3-d]pyrimidin-2-yl)oxy]ethyl}-3,9-diazaspiro[5.5]undecan-3-yl)methyl]piperidin-1-yl}-4-fluoro-3-methyl-2-oxo-2,3-dihydro-1H-1,3-benzodiazol-1-yl)piperidine-2,6-dione]	> 70%	< 5.1 µM
C#Cc1c(F)ccc2cc(O)cc(-c3ncc4c(N5CC6CCC(C5)N6)nc(OCCN5CCC(F)(CC6CCN(CC7CCN(c8ccc9c(c8)n(C)c(=O)n9C8CCC(=O)NC8=O)CC7)CC6)CC5)nc4c3F)c12 (stereo not shown) [Compound 198, 3-[5-[4-[[4-[[1-[2-[4-(3,8-diazabicyclo[3.2.1]octan-3-yl)-7-(8-ethynyl-7-fluoro-3-hydroxy-1-naphthyl)-8-fluoro-pyrido[4,3-d]pyrimidin-2-yl]oxyethyl]-4-fluoro-4-piperidyl]methyl]-1-piperidyl]methyl]-1-piperidyl]-3-methyl-2-oxo-benzimidazol-1-yl]piperidine-2,6-dione]	> 70%	< 5.1 µM
C#Cc1c(F)ccc2cc(O)cc(-c3ncc4c(N5CC6CCC(C5)N6)nc(OCCN5CCC(CC6CCN(CC7CCN(c8cc(F)c9c(c8F)n(C)c(=O)n9C8CCC(=O)NC8=O)CC7)CC6)CC5)nc4c3F)c12 (stereo not shown) [Compound 199, 3-{5-[4-({4-[(1-{2-[(4-{3,8-diazabicyclo[3.2.1]octan-3-yl}-7-(8-ethynyl-7-fluoro-3-hydroxynaphthalen-1-yl)-8-fluoropyrido[4,3-d]pyrimidin-2-yl)oxy]ethyl}piperidin-4-yl)methyl]piperidin-1-yl}methyl)piperidin-1-yl]-4,7-difluoro-3-methyl-2-oxo-2,3-dihydro-1H-1,3-benzodiazol-1-yl}piperidine-2,6-dione]	> 70%	< 5.1 µM
C#Cc1c(F)ccc2cc(O)cc(-c3ncc4c(N5CC6CCC(C5)N6)nc(OCCN5CCC(F)(CN6CCN(CC7CCN(c8ccc9c(c8)n(C)c(=O)n9C8CCC(=O)NC8=O)CC7)CC6)CC5)nc4c3F)c12 (stereo not shown) [Compound 200, 3-[5-[4-[[4-[[1-[2-[4-(3,8-diazabicyclo[3.2.1]octan-3-yl)-7-(8-ethynyl-7-fluoro-3-hydroxy-1-naphthyl)-8-fluoro-pyrido[4,3-d]pyrimidin-2-yl]oxyethyl]-4-fluoro-4-piperidyl]methyl]piperazin-1-yl]methyl]-1-piperidyl]-3-methyl-2-oxo-benzimidazol-1-yl]piperidine-2,6-dione]	> 70%	< 5.1 µM
C#Cc1c(F)ccc2cc(O)cc(-c3ncc4c(N5CC6CCC(C5)N6)nc(OC[C@@H]5C[C@@H](OC6CCN(CC7CCN(c8cc(F)c9c(c8F)n(C)c(=O)n9C8CCC(=O)NC8=O)CC7)CC6)CN5C)nc4c3F)c12 (stereo partly drawn) [Compound 201, 3-(5-{4-[(4-{[(3R,5S)-5-{[(4-{3,8-diazabicyclo[3.2.1]octan-3-yl}-7-(8-ethynyl-7-fluoro-3-hydroxynaphthalen-1-yl)-8-fluoropyrido[4,3-d]pyrimidin-2-yl)oxy]methyl}-1-methylpyrrolidin-3-yl]oxy}piperidin-1-yl)methyl]piperidin-1-yl}-4,7-difluoro-3-methyl-2-oxo-2,3-dihydro-1H-1,3-benzodiazol-1-yl)piperidine-2,6-dione]	> 70%	< 5.1 µM
C#Cc1c(F)ccc2cc(O)cc(-c3ncc4c(N5CC6CCC(C5)N6)nc(OCCN5CCC6(CC5)CCN(CC5CCN(c7ccc8c(c7)n(C(C)C)c(=O)n8C7CCC(=O)NC7=O)CC5)CC6)nc4c3F)c12 (stereo not shown) [Compound 202, 3-(5-{4-[(9-{2-[(4-{3,8-diazabicyclo[3.2.1]octan-3-yl}-7-(8-ethynyl-7-fluoro-3-hydroxynaphthalen-1-yl)-8-fluoropyrido[4,3-d]pyrimidin-2-yl)oxy]ethyl}-3,9-diazaspiro[5.5]undecan-3-yl)methyl]piperidin-1-yl}-2-oxo-3-(propan-2-yl)-2,3-dihydro-1H-1,3-benzodiazol-1-yl)piperidine-2,6-dione]	> 70%	< 5.1 µM

Reference: patent US12448399B2, “Cereblon-based KRAS degrading PROTACs and uses related thereto” (Arvinas Operations, Inc., priority 2023, dated 2025)
